The numbers were not newly measured in patent US20020035459A1, “PHARMACOKINETIC-BASED DRUG DESIGN TOOL AND METHOD” (priority 1998, published 2002), which cites them from elsewhere.

Structures are written as SMILES.

The subject of one data set is rabbit intestinal tissue. Particulars: donor concentration per compound; for Pe Colon: rabbit colon; for Pe Duodenum: rabbit duodenum; for Pe Ileum: rabbit ileum; for Pe Jejunum: rabbit jejunum.
In the next data set the test system is intestinal mucosa. The note with it: permeability standards.
The conditions of data set [1]: plasma kinetics, first order transfer.

Consider `O=C[C@H](O)[C@@H](O)[C@H](O)[C@H](O)CO` [D-glucose], for which, in the data set on rabbit intestinal tissue, the “Pe Colon” value is 9.28 ×10⁻⁶ cm/s, the “Pe Duodenum” value is 4.55 ×10⁻⁶ cm/s, the “Pe Ileum” value is 14.5 ×10⁻⁶ cm/s and the “Pe Jejunum” value was 10.2 ×10⁻⁶ cm/s. Also, the Transport mechanism result with intestinal mucosa is reported as “Carrier-mediated Influx”.

For the molecule `Nc1nc2c(ncn2COC(CO)CO)c(=O)[nH]1.[Na]` [Gancyclovir, 9-(1,3-dihydroxy-2-propoxymethyl)guanine, monosodium salt], the k21 in data set [1] was 0.670.

Regarding `C[C@]12CCC(=O)C=C1CC[C@@H]1[C@@H]2[C@@H](O)C[C@@]2(C)[C@H]1CC[C@]2(O)C(=O)CO` [hydrocortisone], in the data set with rabbit intestinal tissue, the “Pe Colon” value was 3.85 ×10⁻⁶ cm/s, the “Pe Duodenum” value was 0.3 ×10⁻⁶ cm/s, the “Pe Ileum” value is 2.91 ×10⁻⁶ cm/s and the “Pe Jejunum” value was 1.31 ×10⁻⁶ cm/s.

As for `OC[C@@H](O)[C@@H](O)[C@H](O)[C@H](O)CO` [mannitol], in the data set on rabbit intestinal tissue, the “Pe Colon” value was 5.53 ×10⁻⁶ cm/s, the “Pe Duodenum” value is 1.73 ×10⁻⁶ cm/s, the “Pe Ileum” value is 4.02 ×10⁻⁶ cm/s and the “Pe Jejunum” value is 3.54 ×10⁻⁶ cm/s. In addition, the Transport mechanism entry in the data set on intestinal mucosa is given as “Passive Paracellular”.
